For test [1], the system named is CFA-induced paw radiant heat hypersensitivity. The test can be described thus: CFA-Induced Paw Radiant Heat Hypersensitivity. Format: in vivo. The conditions noted are these: CFA thermal hypersensitivity, rat, 30 mg/kg p.o., HPβCD; group mean values; last time point 180 or 300 min. The method, then: Each rat was placed in a test chamber on a warm glass surface and allowed to acclimate for approximately 10 min. A radiant thermal stimulus (beam of light) was then focused through the glass onto the plantar surface of each hind paw in turn. The thermal stimulus was automatically shut off by a photoelectric relay when the paw was moved or when the cut-off time was reached (20 sec for radiant heat at ˜5 amps). An initial (baseline) response latency to the thermal stimulus was recorded for each animal prior to the injection of complete Freund's adjuvant (CFA). […] Immediately following the post-CFA latency assessment, the indicated test compound or vehicle was administered orally.
The percent reversal (% R) of hypersensitivity was calculated in one of two different ways: 1) using group mean values or 2) using individual animal values. More specifically:
Method 2. For some compounds, the % R of hypersensitivity was calculated separately for each animal according to the following formula: % reversal=[(individual treatment response−individual CFA response)/(individual baseline response−individual CFA response)]×100. Results are given as a mean of the maximum % reversal values calculated for each individual animal.

Test [2] addresses T1, MGL (rat brain homogenate) (Rattus norvegicus, UniProt Q8R431).
T1 construct: pre-incubated with rat brain homogenate (50 mg); from tissue; host or cells: rat brain homogenate
T1 sequence (Q8R431 1-303): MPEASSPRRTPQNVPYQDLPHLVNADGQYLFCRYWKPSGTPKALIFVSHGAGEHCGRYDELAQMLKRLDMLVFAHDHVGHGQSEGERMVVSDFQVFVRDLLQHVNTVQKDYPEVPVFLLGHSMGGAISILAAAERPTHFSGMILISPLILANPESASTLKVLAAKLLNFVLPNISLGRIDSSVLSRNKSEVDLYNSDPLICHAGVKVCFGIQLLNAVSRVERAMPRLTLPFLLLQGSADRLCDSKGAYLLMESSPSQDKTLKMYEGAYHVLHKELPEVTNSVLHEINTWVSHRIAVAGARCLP
The test can be described thus: 2-AG Accumulation Assay in rat brain homogenate. Format: biochemical. The conditions noted are these: 0.25 h, compound 1 μM, percent of vehicle 2-AG accumulation, read-out: Rat Brain 2AG % VehCntrl (%) @1 μM.

Test [3] concerns murine model of acute inflammation. Conditions: Comelli et al. 2007; cited from earlier work.
The next test concerns tail flick. Conditions: intravenous delivery (Mechoulam et al. 1995); cited from earlier work.
The next test concerns hot plate. Conditions: cited from earlier work.

Where two headings read alike, the source gives them in different places.

With `C/C(=C\c1ccc(Cl)cc1)c1c(C)c(C(=O)N2CC(N3CCN(C(=O)c4nccs4)CC3)C2)nn1-c1ccc(Cl)cc1Cl` [Cpd 1010], in test [1], the “Method 1: peak % reversal” value came to 23.4%. On to `Cc1ccc(-n2ccc3cc(C(=O)N4CC(N5CCN(C(=O)c6nccs6)CC5)C4)ccc32)nc1` [Cpd 1073, 1-(5-Methylpyridin-2-yl)-5-({3-[4-(1,3-thiazol-2-ylcarbonyl)piperazin-1-yl]azetidin-1-yl}carbonyl)-1H-indole], for which the activity at 1 µM in test [2] was found to be 749%. Consider `O=C(c1ccc(-c2cccc(C(F)(F)F)c2)c(Cl)c1)N1CC(N2CCN(C(=O)c3cscn3)CC2)C1` [Cpd 1102], for which the “Method 1: peak % reversal” value in test [1] came out at 38%. Take `O=C(Nc1cccc(-c2ccccc2)c1)OC1CCCCC1` [URB602]: in test [3], the antinociceptive effect entry is on record as “antinociceptive effect”.

Consider `CCCCC/C=C\C/C=C\C/C=C\C/C=C\CCCC(=O)OC(CO)CO` [2-AG, 2-arachidinoylglycerol], for which the “analgesia in the tail flick assay” value with tail flick was “produces analgesia”. In addition, the “analgesia in the hot plate assay” value with hot plate (combined with 2-linoleoyl glycerol and 2-palmitoyl glycerol (Ben-Shabat et al. 1998)) is reported as “significant analgesia”; in the test with hot plate (given alone (Ben-Shabat et al. 1998)) it was “not analgesic”; in the test with hot plate (intravenous delivery (Lichtman et al. 2002)), “produces analgesia”.

The record behind these values is patent US8367653B2, “Azetidinyl diamides as monoacylglycerol lipase inhibitors” (Janssen Pharmaceutica NV, priority 2009, dated 2013).
